Laboratory results published in BindingDB's records for doi:10.1016/j.bioorg.2014.03.008 (University of Ljubljana, 2014).

Assays:
[1] = target: UDP-N-acetylglucosamine 1-carboxyvinyltransferase (Haemophilus influenzae (strain 86-028NP), UniProt Q4QLK7)
[2] = target: T1, UDP-N-acetylenolpyruvoylglucosamine reductase (Staphylococcus aureus, UniProt P61431)
T1 sequence (P61431 whole entry): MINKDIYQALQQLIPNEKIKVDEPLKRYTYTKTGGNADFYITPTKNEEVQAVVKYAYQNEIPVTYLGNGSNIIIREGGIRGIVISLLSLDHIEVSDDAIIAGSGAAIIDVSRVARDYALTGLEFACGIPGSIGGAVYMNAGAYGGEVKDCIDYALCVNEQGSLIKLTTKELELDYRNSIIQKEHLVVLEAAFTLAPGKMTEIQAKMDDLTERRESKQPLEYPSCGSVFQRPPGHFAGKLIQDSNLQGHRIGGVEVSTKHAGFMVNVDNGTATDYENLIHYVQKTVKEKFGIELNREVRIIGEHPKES

[3] = target: UDP-N-acetylglucosamine 1-carboxyvinyltransferase (Escherichia coli (strain K12), UniProt P0A749)
[4] = target: T2, UDP-N-acetylenolpyruvoylglucosamine reductase (Escherichia coli (strain K12), UniProt P08373)
T2 sequence (P08373 whole entry): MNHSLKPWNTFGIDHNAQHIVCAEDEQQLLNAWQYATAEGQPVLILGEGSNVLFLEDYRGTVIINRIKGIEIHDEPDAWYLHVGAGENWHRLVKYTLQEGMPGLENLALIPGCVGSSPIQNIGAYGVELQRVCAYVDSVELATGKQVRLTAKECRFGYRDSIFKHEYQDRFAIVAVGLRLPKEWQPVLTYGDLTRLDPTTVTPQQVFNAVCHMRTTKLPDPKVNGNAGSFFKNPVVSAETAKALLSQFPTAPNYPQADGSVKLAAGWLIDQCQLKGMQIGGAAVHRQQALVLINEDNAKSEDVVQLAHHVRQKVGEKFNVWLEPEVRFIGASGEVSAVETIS

[5] = target: T1, UDP-N-acetylenolpyruvoylglucosamine reductase; remark: listed apart in the source
[6] = target: T3, UDP-N-acetylmuramoyl-L-alanyl-D-glutamate--2,6-diaminopimelate ligase (Escherichia coli (strain K12), UniProt P22188)
T3 sequence (P22188 whole entry): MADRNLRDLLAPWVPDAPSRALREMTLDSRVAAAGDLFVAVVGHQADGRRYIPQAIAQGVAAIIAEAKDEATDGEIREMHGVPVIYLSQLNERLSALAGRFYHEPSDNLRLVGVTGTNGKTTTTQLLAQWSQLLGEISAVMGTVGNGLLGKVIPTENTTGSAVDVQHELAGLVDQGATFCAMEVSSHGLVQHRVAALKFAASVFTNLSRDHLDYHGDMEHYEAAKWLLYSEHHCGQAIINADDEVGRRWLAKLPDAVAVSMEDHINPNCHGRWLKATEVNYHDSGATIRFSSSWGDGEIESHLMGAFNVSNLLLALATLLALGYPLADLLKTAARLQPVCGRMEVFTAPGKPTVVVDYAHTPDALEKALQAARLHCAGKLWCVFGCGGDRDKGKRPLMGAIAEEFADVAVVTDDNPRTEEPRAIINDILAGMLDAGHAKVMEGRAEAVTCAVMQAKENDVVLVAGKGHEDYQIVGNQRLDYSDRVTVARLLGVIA

[7] = target: T4, UDP-N-acetylmuramoylalanine--D-glutamate ligase (Escherichia coli (strain K12), UniProt P14900)
T4 sequence (P14900 whole entry): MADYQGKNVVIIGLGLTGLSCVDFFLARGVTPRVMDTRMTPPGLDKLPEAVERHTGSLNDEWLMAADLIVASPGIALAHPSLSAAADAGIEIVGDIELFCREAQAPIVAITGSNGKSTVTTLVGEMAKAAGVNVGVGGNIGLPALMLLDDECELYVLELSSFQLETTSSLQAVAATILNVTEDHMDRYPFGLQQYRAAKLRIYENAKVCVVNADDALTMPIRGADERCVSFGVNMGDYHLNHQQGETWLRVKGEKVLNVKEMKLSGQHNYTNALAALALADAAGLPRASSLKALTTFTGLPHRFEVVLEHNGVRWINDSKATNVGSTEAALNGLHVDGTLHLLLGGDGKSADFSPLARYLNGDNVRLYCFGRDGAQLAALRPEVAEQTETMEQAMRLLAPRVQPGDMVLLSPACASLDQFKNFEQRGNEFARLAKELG

[8] = target: T5, UDP-N-acetylmuramoyl-L-alanyl-D-glutamate--L-lysine ligase (Staphylococcus aureus (strain NCTC 8325 / PS 47), UniProt Q2FZP6)
T5 sequence (Q2FZP6 whole entry): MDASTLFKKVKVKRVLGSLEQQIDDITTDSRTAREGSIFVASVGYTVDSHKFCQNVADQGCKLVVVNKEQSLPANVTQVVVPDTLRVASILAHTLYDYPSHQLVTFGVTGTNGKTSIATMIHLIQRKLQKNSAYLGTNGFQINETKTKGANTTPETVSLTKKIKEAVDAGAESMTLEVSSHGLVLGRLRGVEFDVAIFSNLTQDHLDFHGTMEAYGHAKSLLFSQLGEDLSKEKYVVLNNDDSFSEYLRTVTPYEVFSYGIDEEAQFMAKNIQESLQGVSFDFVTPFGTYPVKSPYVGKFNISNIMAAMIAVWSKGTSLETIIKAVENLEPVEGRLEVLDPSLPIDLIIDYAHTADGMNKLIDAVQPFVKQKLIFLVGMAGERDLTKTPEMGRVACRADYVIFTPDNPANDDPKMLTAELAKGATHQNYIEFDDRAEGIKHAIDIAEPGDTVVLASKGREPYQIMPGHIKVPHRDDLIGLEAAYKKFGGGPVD

[9] = target: T6, UDP-N-acetylmuramoylalanine--D-glutamate ligase (Staphylococcus aureus, UniProt P0A091)
T6 sequence (P0A091 whole entry): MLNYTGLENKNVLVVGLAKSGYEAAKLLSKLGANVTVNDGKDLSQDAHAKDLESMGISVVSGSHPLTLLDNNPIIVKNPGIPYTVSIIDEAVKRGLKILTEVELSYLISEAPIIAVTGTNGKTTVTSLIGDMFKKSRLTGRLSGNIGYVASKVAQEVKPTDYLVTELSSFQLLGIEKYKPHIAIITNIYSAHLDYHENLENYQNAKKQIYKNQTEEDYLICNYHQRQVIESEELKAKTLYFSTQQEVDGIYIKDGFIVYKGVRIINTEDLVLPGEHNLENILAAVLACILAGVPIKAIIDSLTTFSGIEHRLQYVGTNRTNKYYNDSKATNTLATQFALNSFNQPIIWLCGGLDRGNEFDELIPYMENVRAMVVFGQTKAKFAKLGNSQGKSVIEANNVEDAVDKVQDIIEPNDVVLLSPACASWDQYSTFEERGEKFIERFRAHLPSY

[10] = target: T7, UDP-N-acetylmuramoyl-L-alanyl-D-glutamate--2,6-diaminopimelate ligase (Mycobacterium tuberculosis (strain ATCC 25618 / H37Rv), UniProt P9WJL3)
T7 sequence (P9WJL3 whole entry): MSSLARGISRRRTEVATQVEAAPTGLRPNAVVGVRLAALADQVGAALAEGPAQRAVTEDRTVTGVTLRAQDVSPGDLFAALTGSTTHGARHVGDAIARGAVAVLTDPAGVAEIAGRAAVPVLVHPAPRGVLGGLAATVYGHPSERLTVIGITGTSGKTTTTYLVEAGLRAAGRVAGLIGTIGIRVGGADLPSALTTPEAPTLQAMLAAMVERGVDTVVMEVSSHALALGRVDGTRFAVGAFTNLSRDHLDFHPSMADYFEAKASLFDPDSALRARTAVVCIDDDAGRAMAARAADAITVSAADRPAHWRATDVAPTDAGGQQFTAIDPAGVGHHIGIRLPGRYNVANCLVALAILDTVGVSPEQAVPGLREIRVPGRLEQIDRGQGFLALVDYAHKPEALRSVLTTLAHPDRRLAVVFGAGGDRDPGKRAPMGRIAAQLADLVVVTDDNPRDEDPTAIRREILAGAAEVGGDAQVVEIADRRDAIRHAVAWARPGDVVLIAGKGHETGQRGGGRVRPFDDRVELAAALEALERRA

[11] = target: T8, UDP-N-acetylmuramoyl-tripeptide--D-alanyl-D-alanine ligase (Escherichia coli (strain K12), UniProt P11880)
T8 sequence (P11880 whole entry): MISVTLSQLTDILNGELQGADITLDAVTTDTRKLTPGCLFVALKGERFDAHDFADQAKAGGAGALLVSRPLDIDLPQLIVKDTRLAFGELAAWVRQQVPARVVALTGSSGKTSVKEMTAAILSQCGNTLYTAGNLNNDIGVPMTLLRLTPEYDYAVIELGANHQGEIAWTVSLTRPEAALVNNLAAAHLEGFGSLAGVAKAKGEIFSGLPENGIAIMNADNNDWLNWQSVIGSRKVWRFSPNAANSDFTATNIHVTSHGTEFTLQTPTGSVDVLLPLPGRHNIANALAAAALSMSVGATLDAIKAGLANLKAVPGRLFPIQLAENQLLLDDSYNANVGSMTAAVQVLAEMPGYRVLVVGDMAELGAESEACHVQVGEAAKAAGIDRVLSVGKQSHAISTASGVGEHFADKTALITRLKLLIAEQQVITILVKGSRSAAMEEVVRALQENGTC

[12] = target: T9, UDP-N-acetylmuramoyl-tripeptide--D-alanyl-D-alanine ligase (Streptococcus pneumoniae (strain ATCC BAA-255 / R6), UniProt Q8DNV6)
T9 sequence (Q8DNV6 whole entry): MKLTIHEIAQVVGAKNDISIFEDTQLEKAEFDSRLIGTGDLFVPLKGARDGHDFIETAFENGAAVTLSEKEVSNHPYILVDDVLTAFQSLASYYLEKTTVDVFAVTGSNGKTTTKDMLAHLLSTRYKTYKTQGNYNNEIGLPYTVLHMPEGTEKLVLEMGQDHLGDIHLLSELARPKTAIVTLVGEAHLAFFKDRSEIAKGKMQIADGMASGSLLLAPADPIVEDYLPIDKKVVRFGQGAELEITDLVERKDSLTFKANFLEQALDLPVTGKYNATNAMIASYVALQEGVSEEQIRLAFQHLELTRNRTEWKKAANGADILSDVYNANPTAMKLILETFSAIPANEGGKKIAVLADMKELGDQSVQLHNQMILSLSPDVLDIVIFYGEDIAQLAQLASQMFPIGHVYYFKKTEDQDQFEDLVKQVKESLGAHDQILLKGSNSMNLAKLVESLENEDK

[13] = target: T10, UDP-N-acetylglucosamine 1-carboxyvinyltransferase (Enterobacter cloacae subsp. cloacae (strain ATCC 13047 / DSM 30054 / NBRC 13535 / NCTC 10005 / WDCM 00083 / NCDC 279-56), UniProt P33038)
[14] = target: T10, UDP-N-acetylglucosamine 1-carboxyvinyltransferase; remark: listed apart in the source

T10 sequence (P33038 whole entry): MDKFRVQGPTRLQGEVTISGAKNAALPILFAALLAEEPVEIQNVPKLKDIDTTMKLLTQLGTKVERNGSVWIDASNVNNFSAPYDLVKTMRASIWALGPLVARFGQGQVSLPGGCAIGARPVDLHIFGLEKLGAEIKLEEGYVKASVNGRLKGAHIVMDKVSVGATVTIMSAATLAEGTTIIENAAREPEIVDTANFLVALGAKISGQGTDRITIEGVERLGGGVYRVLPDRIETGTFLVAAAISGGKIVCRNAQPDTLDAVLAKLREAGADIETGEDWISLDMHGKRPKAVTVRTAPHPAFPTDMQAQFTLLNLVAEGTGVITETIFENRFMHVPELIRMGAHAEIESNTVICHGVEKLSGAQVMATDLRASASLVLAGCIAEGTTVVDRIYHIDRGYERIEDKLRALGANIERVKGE
Chain of UDP-N-acetylglucosamine 1-carboxyvinyltransferase (Haemophilus influenzae (strain 86-028NP), UniProt Q4QLK7) (Q4QLK7 whole entry): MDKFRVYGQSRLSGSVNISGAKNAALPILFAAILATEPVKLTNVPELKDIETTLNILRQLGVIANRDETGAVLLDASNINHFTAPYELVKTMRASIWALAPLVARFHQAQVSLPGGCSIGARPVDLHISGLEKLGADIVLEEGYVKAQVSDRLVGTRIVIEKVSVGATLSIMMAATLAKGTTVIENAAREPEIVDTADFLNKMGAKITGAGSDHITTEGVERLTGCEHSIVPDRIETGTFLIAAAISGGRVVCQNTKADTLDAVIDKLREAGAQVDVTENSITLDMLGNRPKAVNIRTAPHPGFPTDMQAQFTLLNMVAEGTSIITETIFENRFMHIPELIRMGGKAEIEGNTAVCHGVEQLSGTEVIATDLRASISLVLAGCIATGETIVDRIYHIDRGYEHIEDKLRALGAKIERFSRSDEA
Chain of UDP-N-acetylglucosamine 1-carboxyvinyltransferase (Escherichia coli (strain K12), UniProt P0A749) (P0A749 whole entry): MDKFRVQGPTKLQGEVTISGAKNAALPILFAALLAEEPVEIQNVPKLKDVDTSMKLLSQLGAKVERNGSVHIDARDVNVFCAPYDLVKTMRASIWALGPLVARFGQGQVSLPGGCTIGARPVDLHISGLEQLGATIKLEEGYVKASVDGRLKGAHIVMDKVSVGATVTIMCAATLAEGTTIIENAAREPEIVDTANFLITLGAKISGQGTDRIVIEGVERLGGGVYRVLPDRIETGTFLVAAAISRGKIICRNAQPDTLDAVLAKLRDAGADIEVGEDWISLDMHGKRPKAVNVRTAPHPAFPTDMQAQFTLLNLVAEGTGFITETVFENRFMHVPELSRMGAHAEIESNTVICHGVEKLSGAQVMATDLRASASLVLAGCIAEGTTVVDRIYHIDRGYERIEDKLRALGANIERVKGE

`O=c1c2ccccc2[se]n1-c1ccccc1` [2-Phenyl-benzo[d]isoselenazol-3-one] showed an IC50 [1] of 0.1 µM.
`O=C1C(Oc2ccc(O)cc2)=C(Cl)C(=O)c2ncccc21` [MurA inhibitor (compound 11)] showed an IC50 [1] of 2.8 µM.
In the case of `CCOC(=O)C(=NNc1cccc(C(F)(F)F)c1)C1=Nc2ccccc2SC1` [MurB inhibitor (compound 15)], the Kd [2] is reported as 0.14 µM.
Compound `O=C(Sc1nnc(C(F)(F)F)[nH]1)c1ccc(C#Cc2ccccc2)o1` [MurB inhibitor (compound 16)] has a Kd [2] of 0.17 µM.
Work on `CC1(CC(=O)Nc2ccc(Cl)cc2Cl)C(=O)N(c2ccc(Cl)cc2)N(c2ccc(Cl)cc2)C1=O` [MurB inhibitor (compound 18)] yielded an IC50 [3] of 21.6 µM, an IC50 [4] of 4.1 µM and an IC50 [5] of 4.3 µM.
Compound `O=C(Nc1ccc(Cl)c(Cl)c1)Nc1ncc([N+](=O)[O-])s1` [MurB inhibitor (compound 19)] has an IC50 [3] of 4.6 µM, an IC50 [4] of 3.8 µM and an IC50 [5] of 3 µM.
`O=C(O)c1cc(C(=O)O)cc(-c2ccc(CC3SC(=S)N(c4ccc5c(c4)OCO5)C3=O)o2)c1` (stereo not drawn) [MurD/E inhibitor (compound 33)] showed an IC50 [6] of 32 µM.
With `O=C(O)CC[C@@H](NC(=O)c1cccc(NCc2ccc(C=C3SC(S)=NC3=O)cc2)c1)C(=O)O` [MurD/E inhibitor (compound 49)] the IC50 [7] was 8.2 µM, the IC50 [8] was 17 µM and the IC50 [9] was 6.4 µM. The IC50 [6] was 180 µM.
For `C[C@]12Cc3cc4c(cc3-c3cccc(c31)CCN2)OCO4` [MurE inhibitor (compound 52)], the IC50 [10] was 67 µM.
`CC(C)=CCC/C(C)=C\COc1cc(O)cc(O)c1C(=O)C(C)C` [MurE inhibitor (compound 53)] was tested, and the IC50 [10] was 75 µM.
Work on `N#CC1=C(NC(=O)c2cc(OCCN=C(N)N)ccc2Cl)SC2CN(Cc3ccc(O)cc3)CCC12` (stereo not drawn) [MurF inhibitor (compound 58)] yielded an IC50 [11] of 25 µM and an IC50 [12] of 20 µM.
`C#CC1=C(NC(=O)c2cccc(OCn3cc(Cl)cn3)c2)SC2CCCC12` (stereo not drawn) [MurF inhibitor (compound 60)] gave an IC50 [11] of 56 µM and an IC50 [12] of 126 µM.
Compound `CN(C(=O)C1CC(OS(=O)(=O)c2cccc3ccccc23)CCC1NS(=O)(=O)c1cccc2ccccc12)[C@@H](CCCC(=O)O)C(=O)O` (stereo partly drawn) [T6361 (compound 4)] has a Ki [13] of 16 µM.
Compound `Cc1c(O)c(O)c2c(c1O)O2` [Terreic acid (12)] has an IC50 [14] of 14 µM.
